In paper PMC11587651, “Increased cytoplasmic expression of PETase enzymes in E. coli” (Microbial Cell Factories, 2024):

Target: T1, HiC (Mycothermus thermophilus, UniProt A0A075B5G4)
T1 construct: commercial enzyme Novozym 51032 (Strem), used as supplied
T1 sequence (A0A075B5G4 1-194): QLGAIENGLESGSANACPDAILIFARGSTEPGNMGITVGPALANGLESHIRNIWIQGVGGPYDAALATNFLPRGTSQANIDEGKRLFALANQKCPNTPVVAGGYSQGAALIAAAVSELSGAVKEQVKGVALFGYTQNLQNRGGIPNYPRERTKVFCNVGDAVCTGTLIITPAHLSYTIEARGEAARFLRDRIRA
Test: HPLC of BHET to MHET conversion
Assay type: biochemical
Settings: 24% acetonitrile, 76% 100 mM potassium phosphate pH 7, 40 °C, 0.1 g HiC per g BHET; product MHET

SMILES: O=C(OCCO)c1ccc(C(=O)OCCO)cc1 [bis(2-hydroxyethyl) terephthalic acid]
- HPLC of BHET to MHET conversion: enzymatic hydrolysis of BHET using Humicola insolens cutinase (HiC
